Source: patent US8193213B2, “Spermicidal and/or antifungal composition and methods of using the same” (priority 2003, dated 2012)
Marks after values point to notes of the source that are not given here.

Experiments:
adult male Swiss mice = experiment: Antispermatogenic screen: single gavage dose to male mice, testes weight and Spermatogenic Index at 72 h; assay type: in vivo; conditions: day 3 (72 h)
Method: The compounds of the invention were tested in mice for their effects on spermatogenesis three days after a single oral dose by the procedure described in Cook et al (1995) below. Compounds active in this test have been shown also to be anti-fertility compounds.
Compounds were screened for antispermatogenic activity by dosing male mice on day 1 with a gavage dose of control vehicle, positive control (compound 1) or compound of the invention. At 72 h after dosing, animals were killed and the testes were excised, trimmed of fat, and weighed. One testis was examined histologically and rated for spermatogenic potential using the Spermatogenic Index (J. M. Whitsett, P. F. Noden, J. Cherry and A. D. Lawton, J. Reprod. Fertil., 72, 277 (1984), which is a semiquantitative estimate of the sperm producing ability of the testes The index is based on histological appearance of the spermatogenic cells in the seminiferous tubules. A scale of 1 to 6 is used with 5 to 6 being the normal status. A second assessment was based on the weight of the testes.
Tables 1 and 2 show pertinent biological results in terms of the change in testes weight (TW) and spermatogenic index (SI) relative to a control containing only the administration vehicle, but no indenopyridine. In Tables 1 and 2, R^3 and R^4 refer to structures Ib, where R^3 is in the para position; R^1 is ethyl; R^2 is methyl; and R^5 is hydrogen.

testes = experiment: Antispermatogenic activity after a single oral dose to rats; assay type: in vivo; conditions: single oral dose of 30 mg/kg
Excerpt: Spermatids became pycnotic, occasionally forming multinucleated associations. Sertoli cells appear to be cytologically normal. It appears that compound 1 targets spermatids or the Sertoli cell associated with these spermatids because histologic changes are observed in these spermatids first.

spermatogenesis = conditions: oral administration to animals; cited from earlier work
mice = experiment: Lethargy and sedation in mice; assay type: in vivo
Excerpt: Lethargy and sedation are obviously undesirable side effects in contraceptive agents. In contrast to the lethargy and sedation observed with compound 1, the compounds of the present invention produce minimal lethargy.

[1] = Table 2, 30 mg/kg single gavage dose, vehicle 1% Tween20 in water
[2] = racemic compounds, 30 mg/kg single gavage dose, vehicle 90% water, 7% Tween20, 3% ethanol
[3] = racemic compounds, 3 mg/kg single gavage dose, vehicle 90% water, 7% Tween20, 3% ethanol
[4] = racemic compounds, 10 mg/kg single gavage dose, vehicle 90% water, 7% Tween20, 3% ethanol

Row | Compound | SI change (%) (Spermatogenic Index, % change from vehicle control) (adult male Swiss mice; [1]) [%*] | TW change (%) (testes weight, % change from vehicle control) (adult male Swiss mice; [1]) [%*] | SI change (%) (Spermatogenic Index, % change from vehicle control) (adult male Swiss mice; [2]) [%*] | TW change (%) (testes weight, % change from vehicle control) (adult male Swiss mice; [2]) [%*] | Testis histology (testes) | Effect on weights of the testes (testes; within 24 h) | Inhibition of spermatogenesis (spermatogenesis) | Lethargy (mice; 30 mg/kg given subcutaneously) | Lethargy and sedation (mice; oral dose of 30 mg/kg) | melting point [°C] | SI change (%) (Spermatogenic Index, % change from vehicle control) (adult male Swiss mice; [3]) [%*] | TW change (%) (testes weight, % change from vehicle control) (adult male Swiss mice; [3]) | SI change (%) (Spermatogenic Index, % change from vehicle control) (adult male Swiss mice; [4]) [%*] | TW change (%) (testes weight, % change from vehicle control) (adult male Swiss mice; [4]) [%*]
1 | CCN1CC[C@@H]2[C@@H](c3ccc(C)cc3)c3cc(C)ccc3[C@@H]2C1 (racemic) [Compound 1, (4aRS,5SR,9bRS)-2-ethyl-2,3,4,4a,5,9b-hexahydro-7-methyl-5-(4-methylphenyl)-1H-indeno[1,2-c]pyridine] | −61 | −24 | −55 | 19 | Degenerative changes in the seminiferous tubules | drastically reducing the weights of the testes | reversible inhibition of spermatogenesis | extreme lethargy | some lethargy and sedation | – | – | – | – | –
2 | CCN1CC[C@@H]2[C@@H](c3ccc(C(=O)O)cc3)c3cc(C)c(Br)cc3[C@@H]2C1.Cl (racemic) [Compound 19, (4aRS,5SR,9bRS)-2-Ethyl-8-Bromo-7-Methyl-2,3,4,4a,5,9b-Hexahydro-5-(4-carboxylphenyl)-1H-Indeno[1,2-c]pyridine Hydrochloride] | – | – | −72 | −39 | – | – | – | – | – | 169.6 to 170.3 | −69 | −8 | −71 | −28
